Data published in article PMC10569036.

Assay: shake flask on a mixture of 185; loss from the water phase only; LC-Orbitrap peak areas
Conditions: room

Row | log partition 1-octanol / HPLC water, unbuffered, traces of methanol / DMSO | log partition butyl acetate / HPLC water, unbuffered, traces of methanol / DMSO | log partition chloroform / HPLC water, unbuffered, traces of methanol / DMSO | log partition cyclohexane / HPLC water, unbuffered, traces of methanol / DMSO | log partition dichloromethane / HPLC water, unbuffered, traces of methanol / DMSO | log partition n-hexane / HPLC water, unbuffered, traces of methanol / DMSO | log partition n-octane / HPLC water, unbuffered, traces of methanol / DMSO | log partition n-undecane / HPLC water, unbuffered, traces of methanol / DMSO | log partition oleylalcohol / HPLC water, unbuffered, traces of methanol / DMSO | log partition toluene / HPLC water, unbuffered, traces of methanol / DMSO | Compound
1 | 1.294 log10 | 0.7248 log10 | 1.573 log10 | 1.164 log10 | 1.169 log10 | 0.9609 log10 | 1.205 log10 | 0.9207 log10 | 0.6631 log10 | 1.185 log10 | COC(=O)c1ccc(C(=O)OC)c(C(=O)OC)c1
2 | 0.7604 log10 | 0.7531 log10 | 0.7311 log10 | 0.5528 log10 | 0.8657 log10 | 0.611 log10 | 0.5049 log10 | 0.3954 log10 | 0.7156 log10 | 0.8203 log10 | Cc1cc(O)cc(C)c1Cl
3 | -0.2282 log10 | -0.1902 log10 | 0.1944 log10 | -1.116 log10 | -0.2025 log10 | -1.048 log10 | -1.147 log10 | -0.8216 log10 | -0.4257 log10 | -0.3454 log10 | CCOC(=O)CC(=O)c1ccccc1
4 | -0.06689 log10 | 0.7696 log10 | 1.426 log10 | -0.7757 log10 | 1.412 log10 | -1.074 log10 | -1.39 log10 | -1.078 log10 | -0.5711 log10 | -0.2898 log10 | CC(=O)CCc1ccc(OC(C)=O)cc1
5 | -0.1715 log10 | -0.4086 log10 | -0.4673 log10 | -0.523 log10 | 0.07258 log10 | -0.4156 log10 | -0.5042 log10 | -0.6476 log10 | -0.3131 log10 | 0.01296 log10 | O=C1C=CC(=O)N1c1ccc(Cc2ccc(N3C(=O)C=CC3=O)cc2)cc1
6 | 0.3418 log10 | 1.067 log10 | 3.139 log10 | 0.5577 log10 | 2.123 log10 | -0.5531 log10 | 0.3458 log10 | -0.4236 log10 | -0.165 log10 | 1.554 log10 | CN(C)c1ccc(Cc2ccc(N(C)C)cc2)cc1
7 | -0.5214 log10 | -0.773 log10 | -0.7717 log10 | -1.167 log10 | -0.6352 log10 | -1.755 log10 | -1.639 log10 | -1.584 log10 | -1.087 log10 | -1.18 log10 | CCCCCCCCCCCC(=O)OCC(O)CO (stereo not shown)

Row | Compound | log partition 1-octanol / HPLC water, unbuffered, traces of methanol / DMSO | log partition butyl acetate / HPLC water, unbuffered, traces of methanol / DMSO | log partition chloroform / HPLC water, unbuffered, traces of methanol / DMSO | log partition cyclohexane / HPLC water, unbuffered, traces of methanol / DMSO | log partition dichloromethane / HPLC water, unbuffered, traces of methanol / DMSO | log partition n-hexane / HPLC water, unbuffered, traces of methanol / DMSO | log partition n-octane / HPLC water, unbuffered, traces of methanol / DMSO | log partition n-undecane / HPLC water, unbuffered, traces of methanol / DMSO | log partition oleylalcohol / HPLC water, unbuffered, traces of methanol / DMSO | log partition toluene / HPLC water, unbuffered, traces of methanol / DMSO
8 | CC(=O)/C=C/c1ccccc1 | 0.1948 log10 | -0.04199 log10 | -0.02485 log10 | -0.3829 log10 | -0.0685 log10 | -0.3815 log10 | -0.655 log10 | -0.7862 log10 | -0.0887 log10 | -0.2533 log10
9 | Oc1c(Cl)ccc(Cl)c1Cl | -0.2337 log10 | -1.606 log10 | 0.7523 log10 | 0.2263 log10 | -0.3412 log10 | -0.04129 log10 | 0.4223 log10 | -0.1707 log10 | -0.8397 log10 | -0.4023 log10
10 | CCCN(CCC)c1c([N+](=O)[O-])cc(C(C)C)cc1[N+](=O)[O-] | 1.667 log10 | 0.7238 log10 | 0.1749 log10 | -0.3058 log10 | -0.415 log10 | 0.4636 log10 | -0.4473 log10 | -0.3356 log10 | 0.7657 log10 | 0.0275 log10
